According to US10745382B2 (BRISTOL-MYERS SQUIBB COMPANY, priority 2015, dated 2020):

These molecules were tested against T1, PD-1/PD-L1 (Homo sapiens, UniProt Q9NZQ7) (assay: PD-1/PD-L1 Homogenous Time-Resolved Fluorescence (HTRF) binding assay). Conditions: PD-L1-His 10 nM, PD-1-Ig 20 nM; value given as range class; read-out: Range or IC50.
T1 construct: made in house; host or cells: HEK293T
T1 sequence (Q9NZQ7 with tags, fused parts or gaps): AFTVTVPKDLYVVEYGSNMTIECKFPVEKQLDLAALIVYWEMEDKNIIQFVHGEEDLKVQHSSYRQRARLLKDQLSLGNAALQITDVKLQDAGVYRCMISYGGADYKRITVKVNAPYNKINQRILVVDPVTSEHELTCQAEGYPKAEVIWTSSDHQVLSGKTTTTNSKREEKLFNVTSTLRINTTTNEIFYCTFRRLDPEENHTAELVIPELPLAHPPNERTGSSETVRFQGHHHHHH
How it was run: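 dPBS + 0.1% BSA + 0.05% Tween-20 buffer; Eu-cryptate anti-Ig 1 nM final, APC anti-His 20 nM final; HTRF read. Counter-assays: PD-1-Ig/PD-L2-His 20 & 5 nM, CD80-His/PD-L1-Ig 100 & 10 nM.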
For `Cc1c(COc2cc(OCCCN3CC[C@@H](O)C3)c(CN[C@@H](CO)C(=O)O)cc2Cl)cccc1-c1cccc(OCCCN2CC[C@@H](O)C2)c1C` [Example 1530, (5-chloro-2-(3-((R)-3-hydroxypyrrolidin-1-yl)propoxy)-4-((3′-(3-((R)-3-hydroxypyrrolidin-1-yl)propoxy)-2,2′-dimethyl-[1,1′-biphenyl]-3-yl)methoxy)benzyl)-L-serine], the IC50 was 0.21 to 10 nM. Molecule `Cc1c(COc2cc(OCc3cncc(S(C)(=O)=O)c3)c(CN3CCCC[C@H]3C(=O)O)cc2Cl)cccc1-c1ccc2c(c1)OC(CCN1CC[C@@H](O)C1)CO2` (mixture of isomers) [Example 1507, (2S)-1-(5-chloro-4-((3-(3-(2-((R)-3-hydroxypyrrolidin-1-yl)ethyl)-2,3-dihydrobenzo[b][1,4]dioxin-6-yl)-2-methylbenzyl)oxy)-2-((5-(methylsulfonyl)pyridin-3-yl)methoxy)benzyl)piperidine-2-carboxylic acid] has an IC50 of 0.21 to 10 nM. `Cc1c(COc2cc(OCc3cncc(C#N)c3)c(CN3CCCC[C@H]3C(=O)O)cc2Cl)cccc1-c1cccc(OC[C@@H]2CCCN3CCCC[C@H]23)c1C` [Example 1043, (S)-1-(5-chloro-2-((5-cyanopyridin-3-yl)methoxy)-4-((2,2′-dimethyl-3′-(((1R,9aR)-octahydro-1H-quinolizin-1-yl)methoxy)-[1,1′-biphenyl]-3-yl)methoxy)benzyl)piperidine-2-carboxylic Acid] showed an IC50 of 0.21 to 10 nM. In the case of `Cc1c(OCCCN2CC[C@@H](O)C2)cccc1-c1cccc(COc2cc(OCc3cncc(C#N)c3)c(CN[C@](C)(CO)C(=O)O)cc2Cl)c1` [Example 3015], the IC50 is reported as 0.21 to 10 nM. In the case of `Cc1c(COc2cc(OCc3cncc(C#N)c3)c(CN3CCCC[C@H]3C(=O)O)cc2Cl)cccc1-c1cccc(OCCCN2CCC(N(C)C(=O)OC(C)(C)C)CC2)c1C` [Example 2246, (2S)-1-(4-((3′-(3-(4-(tert-butoxycarbonyl(methyl)amino)piperidin-1-yl)propoxy)-2,2′-dimethylbiphenyl-3-yl)methoxy)-5-chloro-2-((5-cyanopyridin-3-yl)methoxy)benzyl)piperidine-2-carboxylic Acid], the IC50 is reported as 0.21 to 10 nM. `Cc1c(COc2cc(OCc3cncc(C#N)c3)c(CNC(C)(CO)C(=O)O)cc2Cl)cccc1-c1cccc(OCc2cncc(C#N)c2)c1` (racemic) [Example 3018, 2-((5-chloro-2-((5-cyanopyridin-3-yl)methoxy)-4-((3′-((5-cyanopyridin-3-yl)methoxy)-2-methyl-[1,1′-biphenyl]-3-yl)methoxy)benzyl)amino)-3-hydroxy-2-methylpropanoic Acid] was tested, and the IC50 was 0.21 to 10 nM. `CCOC(=O)[C@H](CO)NCc1cc(Cl)c(OCc2cccc(-c3cccc(OCCCN4CC[C@@H](O)C4)c3C)c2C)cc1OCc1cncc(C#N)c1` [Example 3066, (S)-ethyl 2-((5-chloro-2-((5-cyanopyridin-3-yl)methoxy)-4-((3′-(3-((R)-3-hydroxypyrrolidin-1-yl)propoxy)-2,2′-dimethyl-[1,1′-biphenyl]-3-yl)methoxy)benzyl)amino)-3-hydroxypropanoate] showed an IC50 of 0.21 to 10 nM. `Cc1c(COc2cc(OCc3cncc(C#N)c3)c(CN3CCCC[C@H]3C(=O)O)cc2Cl)cccc1-c1cccc(OCCCN2CCC(O)C2)c1C(F)(F)F` (stereo in doubt) [Example 3014, (S)-1-(5-chloro-2-((5-cyanopyridin-3-yl)methoxy)-4-((3′-(3-((R)-3-hydroxypyrrolidin-1-yl)propoxy)-2-methyl-2′-(trifluoromethyl)-[1,1′-biphenyl]-3-yl)methoxy)benzyl)piperidine-2-carboxylic Acid] showed an IC50 of 10 to 100 nM. `Cc1c(COc2cc(OCc3cncc(C#N)c3)c(CN(C)CCC(N)=O)cc2Cl)cccc1-c1cccc(OCCCN(C)CCC(N)=O)c1C` [Example 2266, 3-((3-(3′-((4-(((3-amino-3-oxopropyl)(methyl)amino)methyl)-2-chloro-5-((5-cyanopyridin-3-yl)methoxy)phenoxy)methyl)-2,2′-dimethylbiphenyl-3-yloxy)propyl)(methyl)amino)propanamide] gave an IC50 of 0.21 to 10 nM. `Cc1ccc(OCCCN2CC[C@@H](O)C2)c(C)c1-c1cccc(COc2cc(OCc3cncc(C#N)c3)c(C=O)cc2Cl)c1C` [Example 3027, 5-((4-chloro-2-formyl-5-((3′-(3-((R)-3-hydroxypyrrolidin-1-yl)propoxy)-2,2′,6′-trimethyl-[1,1′-biphenyl]-3-yl)methoxy)phenoxy)methyl)nicotinonitrile] was tested, and the IC50 was 10 to 100 nM. With `Cc1c(COc2cc(OCc3cncc(C#N)c3)c(CNC(C)(CO)CO)cc2Cl)cccc1-c1cccc(OCCC(=O)NC[C@H](O)CO)c1Cl` [Example 2118, (S)-3-((2-chloro-3′-((2-chloro-5-((5-cyanopyridin-3-yl)methoxy)-4-(((1,3-dihydroxy-2-methylpropan-2-yl)amino)methyl)phenoxy)methyl)-2′-methyl-[1,1′-biphenyl]-3-yl)oxy)-N-(2,3-dihydroxypropyl)propanamide] the IC50 was 0.21 to 10 nM. `Cc1c(COCCN2CC[C@@H](O)C2)cccc1-c1cccc(COc2cc(OCc3cncc(C#N)c3)c(CNC(C)(CO)CO)cc2Cl)c1C` [Example 4131, (R)-5-((4-chloro-2-(((1,3-dihydroxy-2-methylpropan-2-yl)amino)methyl)-5-((3′-((2-(3-hydroxypyrrolidin-1-yl)ethoxy)methyl)-2,2′-dimethyl-[1,1′-biphenyl]-3-yl)methoxy)phenoxy)methyl)nicotinonitrile] gave an IC50 of 0.21 to 10 nM. `Cc1c(COc2cc(OCc3cncc(C#N)c3)c(CN3C[C@@H](O)C[C@H]3C(=O)O)cc2Cl)cccc1-c1cccc(C(=O)N2CCOCC2)c1C` [Example 4051, (2S,4S)-1-(5-chloro-2-((5-cyanopyridin-3-yl)methoxy)-4-((2,2′-dimethyl-3′-(morpholine-4-carbonyl)-[1,1′-biphenyl]-3-yl)methoxy)benzyl)-4-hydroxypyrrolidine-2-carboxylic Acid] was tested, and the IC50 was 10 to 100 nM. `Cc1c(COc2cc(OCc3cncc(C#N)c3)c(CNC(CO)CO)cc2Cl)cccc1-c1cccc(OCCCNC[C@H](O)CO)c1Cl` [Example 2036, (S)-5-((4-chloro-5-((2′-chloro-3′-(3-((2,3-dihydroxypropyl)amino)propoxy)-2-methyl-[1,1′-biphenyl]-3-yl)methoxy)-2-(((1,3-dihydroxypropan-2-yl)amino)methyl)phenoxy)methyl)nicotinonitrile] showed an IC50 of 0.21 to 10 nM. `Cc1c(CCCCN2CC[C@@H](O)C2)cccc1-c1cccc(COc2cc(OCc3cncc(C#N)c3)c(CN3C[C@H](O)C[C@H]3C(=O)O)cc2Cl)c1C` [Example 4062, (2S,4R)-1-(5-chloro-2-((5-cyanopyridin-3-yl)methoxy)-4-((3′-(4-((R)-3-hydroxypyrrolidin-1-yl)butyl)-2,2′-dimethyl-[1,1′-biphenyl]-3-yl)methoxy)benzyl)-4-hydroxypyrrolidine-2-carboxylic Acid] showed an IC50 of 0.21 to 10 nM. Work on `Cc1c(COc2cc(OCc3cncc(C#N)c3)c(CN3CCCC[C@H]3C(=O)O)cc2Cl)cccc1-c1cccc(OCCCN2C[C@@H](C)O[C@@H](C)C2)c1C` [Example 3049, (S)-1-(5-chloro-2-((5-cyanopyridin-3-yl)methoxy)-4-((3′-(3-((2S,6R)-2,6-dimethylmorpholino)propoxy)-2,2′-dimethyl-[1,1′-biphenyl]-3-yl)methoxy)benzyl)piperidine-2-carboxylic Acid] yielded an IC50 of 0.21 to 10 nM. `COC(=O)[C@@H]1CCCCN1Cc1cc(Cl)c(OCc2cccc(-c3cccc(OCCCN4CC[C@@H](O)C4)c3C)c2C)cc1OCc1cncc(C#N)c1` [Example 3067, methyl (S)-1-(5-chloro-2-((5-cyanopyridin-3-yl)methoxy)-4-((3′-(3-((R)-3-hydroxypyrrolidin-1-yl)propoxy)-2,2′-dimethyl-[1,1′-biphenyl]-3-yl)methoxy)benzyl)piperidine-2-carboxylate] gave an IC50 of 0.21 to 10 nM. Work on `CCN(Cc1cc(Cl)c(OCc2cccc(-c3cccc(OCCCN4CC[C@@H](O)C4)c3Cl)c2C)cc1OCc1cncc(C#N)c1)C(CO)CO` [Example 2111, (R)-5-((4-chloro-5-((2′-chloro-3′-(3-(3-hydroxypyrrolidin-1-yl)propoxy)-2-methyl-[1,1′-biphenyl]-3-yl)methoxy)-2-(((1,3-dihydroxypropan-2-yl)(ethyl)amino)methyl)phenoxy)methyl)nicotinonitrile] yielded an IC50 of 0.21 to 10 nM. Molecule `Cc1c(COc2cc(OCc3cncc(C#N)c3)c(CNC(C)(C)CO)cc2Cl)cccc1-c1cccc(OCCCN2CC[C@@H](O)C2)c1Cl` [Example 2067, (R)-5-((4-chloro-5-((2′-chloro-3′-(3-(3-hydroxypyrrolidin-1-yl)propoxy)-2-methyl-[1,1′-biphenyl]-3-yl)methoxy)-2-(((1-hydroxy-2-methylpropan-2-yl)amino)methyl)phenoxy)methyl)nicotinonitrile] has an IC50 of 0.21 to 10 nM. For `Cc1c(COc2cc(OCc3cncc(C#N)c3)c(CN3CC[C@@H](O)C3)cc2Cl)cccc1-c1cccc(OCCCN2CC[C@@H](O)C2)c1Cl` [Example 2001, 5-((4-chloro-5-((2′-chloro-3′-(3-((R)-3-hydroxypyrrolidin-1-yl)propoxy)-2-methyl-[1,1′-biphenyl]-3-yl)methoxy)-2-(((R)-3-hydroxypyrrolidin-1-yl)methyl)phenoxy)methyl)nicotinonitrile], the IC50 was 0.21 to 10 nM. `Cc1c(COc2cc(OCc3cncc(S(C)(=O)=O)c3)c(CN[C@@](C)(CO)C(=O)O)cc2Cl)cccc1-c1cccc(OCCCN2CC[C@@H](O)C2)c1` [Example 1024, (S)-2-((5-chloro-4-((3′-(3-((R)-3-hydroxypyrrolidin-1-yl)propoxy)-2-methyl-[1,1′-biphenyl]-3-yl)methoxy)-2-((5-(methylsulfonyl)pyridin-3-yl)methoxy)benzyl)amino)-3-hydroxy-2-methylpropanoic Acid] gave an IC50 of 0.21 to 10 nM.
